Data published in patent publication US20240024488A1, “COMPOUNDS AND USES THEREOF” (Foghorn Therapeutics Inc., priority 2020, published 2024).

Legend:
[1] = biological target: T1, HiBit-BRM fusion protein (Homo sapiens, UniProt P51531); assay: HiBiT-BRM cell-based degradation assay (Nano-Glo HiBiT Lytic Detection, 24 h); details: HeLa cell line expressing HiBiT-BRM; for DC50: read-out: BRM HiBit Degradation IC50
T1 construct: expressed in transfected cells
How it was run: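 HeLa cells stably expressing HiBiT-BRM were treated for 24 h with compounds (10-point 3-fold dilutions, 30 μM final top dose, in duplicate). HiBiT was detected by lytic LgBiT complementation luminescence. % degradation was normalized to DMSO (high control) and 2 μM of a reference BRM/BRG1 degrader (low control).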

[2] = biological target: T2, HiBit-BRG1 fusion protein (Homo sapiens, UniProt P51532); assay: HiBiT-BRG1 cell-based degradation assay (Nano-Glo HiBiT Lytic Detection, 24 h); details: HeLa cell line expressing HiBit-BRG1 and LgBit; for Dmax: read-out: BRG1 HiBit Degradation Maximum (%)
T2 construct: expressed in transfected cells
How it was run: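 Stable HeLa line co-expressing HiBit-BRG1 and LgBit, 5000 cells/well, treated 24 h in a tissue culture incubator. Lysed with Nano-Glo HiBiT lytic reagent, luminescence read. % degradation normalized to DMSO (high control) and 2 μM reference BRM/BRG1 degrader (low control).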

T2 sequence (P51532 whole entry, the tested form may be a part): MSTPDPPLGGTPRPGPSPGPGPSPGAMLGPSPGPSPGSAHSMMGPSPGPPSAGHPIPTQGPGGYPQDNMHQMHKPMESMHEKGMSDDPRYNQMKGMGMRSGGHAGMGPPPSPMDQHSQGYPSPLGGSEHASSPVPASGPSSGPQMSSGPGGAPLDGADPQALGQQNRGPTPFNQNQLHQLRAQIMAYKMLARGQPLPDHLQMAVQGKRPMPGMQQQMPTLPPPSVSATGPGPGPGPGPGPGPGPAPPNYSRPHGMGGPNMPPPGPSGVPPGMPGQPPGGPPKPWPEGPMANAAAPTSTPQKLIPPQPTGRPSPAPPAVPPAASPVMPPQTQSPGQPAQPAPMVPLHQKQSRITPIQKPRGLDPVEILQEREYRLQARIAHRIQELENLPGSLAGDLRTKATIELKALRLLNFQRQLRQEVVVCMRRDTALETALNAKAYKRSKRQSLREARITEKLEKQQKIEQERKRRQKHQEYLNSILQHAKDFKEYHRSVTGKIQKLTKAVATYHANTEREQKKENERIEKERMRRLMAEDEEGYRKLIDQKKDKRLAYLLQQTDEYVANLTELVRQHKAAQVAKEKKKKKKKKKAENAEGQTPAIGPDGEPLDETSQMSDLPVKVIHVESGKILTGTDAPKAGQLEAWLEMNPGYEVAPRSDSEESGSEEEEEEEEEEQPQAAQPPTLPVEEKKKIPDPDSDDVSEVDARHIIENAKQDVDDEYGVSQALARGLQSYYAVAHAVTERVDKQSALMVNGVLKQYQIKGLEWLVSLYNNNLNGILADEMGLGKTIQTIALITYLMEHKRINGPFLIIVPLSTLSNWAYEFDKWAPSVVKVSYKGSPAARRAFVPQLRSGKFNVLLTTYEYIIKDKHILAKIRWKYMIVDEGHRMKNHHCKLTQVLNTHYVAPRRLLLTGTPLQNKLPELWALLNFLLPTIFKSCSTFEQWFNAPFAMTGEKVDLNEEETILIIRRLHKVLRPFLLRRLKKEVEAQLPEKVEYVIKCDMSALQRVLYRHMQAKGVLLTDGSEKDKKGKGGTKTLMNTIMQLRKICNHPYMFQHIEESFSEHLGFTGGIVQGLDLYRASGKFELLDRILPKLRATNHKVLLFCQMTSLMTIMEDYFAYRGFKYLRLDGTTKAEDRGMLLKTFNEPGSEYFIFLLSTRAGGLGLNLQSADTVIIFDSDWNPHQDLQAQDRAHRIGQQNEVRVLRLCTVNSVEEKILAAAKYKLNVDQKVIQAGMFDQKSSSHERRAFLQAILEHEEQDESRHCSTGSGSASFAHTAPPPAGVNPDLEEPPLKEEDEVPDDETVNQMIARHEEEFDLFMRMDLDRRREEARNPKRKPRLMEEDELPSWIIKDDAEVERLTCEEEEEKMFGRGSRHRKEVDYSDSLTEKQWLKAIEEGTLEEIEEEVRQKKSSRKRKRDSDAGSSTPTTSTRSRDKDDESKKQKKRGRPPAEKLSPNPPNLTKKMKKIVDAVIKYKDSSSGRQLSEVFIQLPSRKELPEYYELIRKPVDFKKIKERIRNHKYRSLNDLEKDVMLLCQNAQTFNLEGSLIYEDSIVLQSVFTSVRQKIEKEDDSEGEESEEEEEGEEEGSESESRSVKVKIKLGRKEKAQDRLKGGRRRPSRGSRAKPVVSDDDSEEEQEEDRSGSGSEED
T1 sequence (P51531 whole entry, the tested form may be a part): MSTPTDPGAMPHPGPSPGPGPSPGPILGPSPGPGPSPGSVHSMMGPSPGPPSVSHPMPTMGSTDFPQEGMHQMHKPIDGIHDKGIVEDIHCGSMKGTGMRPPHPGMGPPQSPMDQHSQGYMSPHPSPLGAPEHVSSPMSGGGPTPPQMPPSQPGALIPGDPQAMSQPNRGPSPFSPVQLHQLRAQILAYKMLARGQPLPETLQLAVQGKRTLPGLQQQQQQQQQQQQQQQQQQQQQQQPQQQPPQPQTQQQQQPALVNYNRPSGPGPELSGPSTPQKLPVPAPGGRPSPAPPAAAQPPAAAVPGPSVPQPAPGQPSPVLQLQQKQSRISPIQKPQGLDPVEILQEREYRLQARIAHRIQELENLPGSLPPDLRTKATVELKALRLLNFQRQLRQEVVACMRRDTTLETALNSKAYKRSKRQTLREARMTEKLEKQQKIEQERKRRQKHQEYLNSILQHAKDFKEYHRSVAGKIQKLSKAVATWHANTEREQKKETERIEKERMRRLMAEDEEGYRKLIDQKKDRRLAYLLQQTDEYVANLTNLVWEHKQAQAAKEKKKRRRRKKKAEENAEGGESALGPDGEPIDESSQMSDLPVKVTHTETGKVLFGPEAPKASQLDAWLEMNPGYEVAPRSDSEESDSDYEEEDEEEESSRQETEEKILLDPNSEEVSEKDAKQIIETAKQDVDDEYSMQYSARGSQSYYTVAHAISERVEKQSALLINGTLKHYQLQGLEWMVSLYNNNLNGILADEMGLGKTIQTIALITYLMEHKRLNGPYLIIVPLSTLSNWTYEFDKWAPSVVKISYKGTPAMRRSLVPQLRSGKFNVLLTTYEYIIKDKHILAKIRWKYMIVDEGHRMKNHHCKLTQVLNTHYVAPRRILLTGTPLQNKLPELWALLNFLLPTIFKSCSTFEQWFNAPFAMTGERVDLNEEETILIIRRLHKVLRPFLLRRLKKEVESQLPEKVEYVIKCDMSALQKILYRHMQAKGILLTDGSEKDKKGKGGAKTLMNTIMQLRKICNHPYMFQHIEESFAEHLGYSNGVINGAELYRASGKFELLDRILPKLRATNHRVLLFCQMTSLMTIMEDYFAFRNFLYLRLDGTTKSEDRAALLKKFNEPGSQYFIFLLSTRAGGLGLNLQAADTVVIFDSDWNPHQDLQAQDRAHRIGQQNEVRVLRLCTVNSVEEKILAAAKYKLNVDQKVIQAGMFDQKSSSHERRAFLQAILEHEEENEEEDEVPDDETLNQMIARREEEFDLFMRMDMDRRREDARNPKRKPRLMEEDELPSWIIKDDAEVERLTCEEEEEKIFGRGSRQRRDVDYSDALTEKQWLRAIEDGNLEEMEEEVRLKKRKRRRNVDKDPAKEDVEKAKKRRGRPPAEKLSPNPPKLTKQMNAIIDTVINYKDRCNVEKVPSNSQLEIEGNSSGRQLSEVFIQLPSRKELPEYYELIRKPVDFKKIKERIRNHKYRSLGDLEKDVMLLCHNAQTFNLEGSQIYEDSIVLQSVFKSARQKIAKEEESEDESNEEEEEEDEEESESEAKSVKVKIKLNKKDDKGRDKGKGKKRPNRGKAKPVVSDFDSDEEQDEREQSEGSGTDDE

SMILES | BRM HiBit Degradation Maximum (%) [1] | DC50 [1] | Dmax [2] | DC50 ([2]; read-out: BRMG1 HiBit Degradation IC50)
Cc1ncsc1-c1ccc([C@H](C)NC(=O)[C@@H]2C[C@@H](O)CN2C(=O)[C@@H](c2cc(OCCCN3CC(c4[nH]c5nnc(-c6ccccc6O)cc5c4C)C3)no2)C(C)C)cc1 (racemic) [Compound 229, (2S,4R)-4-hydroxy-1-((R)-2-(3-(3-(3-(3-(2-hydroxyphenyl)-5-methyl-7H-pyrrolo[2,3-c]pyridazin-6-yl)azetidin-1-yl)propoxy)isoxazol-5-yl)-3-methylbutanoyl)-N-((S)-1-(4-(4-methylthiazol-5-yl)phenyl)ethyl)pyrrolidine-2-carboxamide] | A (“A” indicates maximum degradation ≥ 75%) | > 1000 nM | < 50% | –
Cc1ncsc1-c1ccc([C@H](C)NC(=O)[C@@H]2C[C@@H](O)CN2C(=O)[C@@H](c2cc(OCCNCCC(=O)N3CC(c4c[nH]c5nnc(-c6ccccc6O)cc45)C3)no2)C(C)C)cc1 (racemic) [Compound 230, (2S,4R)-4-hydroxy-1-((R)-2-(3-(2-((3-(3-(3-(2-hydroxyphenyl)-7H-pyrrolo[2,3-c]pyridazin-5-yl)azetidin-1-yl)-3-oxopropyl)amino)ethoxy)isoxazol-5-yl)-3-methylbutanoyl)-N-((S)-1-(4-(4-methylthiazol-5-yl)phenyl)ethyl)pyrrolidine-2-carboxamide] | B (“B” indicates maximum degradation ≥ 50%) | > 1000 nM | < 50% | –
Cc1ncsc1-c1ccc([C@H](C)NC(=O)[C@@H]2C[C@@H](O)CN2C(=O)C(c2cc(N3CCC(C(=O)N4CC(c5c[nH]c6nnc(-c7ccccc7O)cc56)C4)CC3)no2)C(C)C)cc1 (mixture of isomers) [Compound 231, (2S,4R)-4-hydroxy-1-((S)-2-(3-(4-(3-(3-(2-hydroxyphenyl)-7H-pyrrolo[2,3-c]pyridazin-5-yl)azetidine-1-carbonyl)piperidin-1-yl)isoxazol-5-yl)-3-methylbutanoyl)-N-((S)-1-(4-(4-methylthiazol-5-yl)phenyl)ethyl)pyrrolidine-2-carboxamide] | A (“A” indicates maximum degradation ≥ 75%) | > 100 nM | < 50% | –
Cc1ncsc1-c1ccc([C@H](C)NC(=O)[C@@H]2C[C@@H](O)CN2C(=O)[C@@H](c2cc(OCCN3CCN(c4cc5cc(-c6ccccc6O)nnc5[nH]4)CC3)no2)C(C)C)cc1 (racemic) [Compound 235, (2S,4R)-4-hydroxy-1-((R)-2-(3-(2-(4-(3-(2-hydroxyphenyl)-7H-pyrrolo[2,3-c]pyridazin-6-yl)piperazin-1-yl)ethoxy)isoxazol-5-yl)-3-methylbutanoyl)-N-((S)-1-(4-(4-methylthiazol-5-yl)phenyl)ethyl)pyrrolidine-2-carboxamide] | A (“A” indicates maximum degradation ≥ 75%) | > 10 nM | > 75% | > 10 nM
Cc1ncsc1-c1ccc([C@H](C)NC(=O)[C@@H]2C[C@@H](O)CN2C(=O)C(c2cc(N3CCC(C(=O)N4CC(c5c[nH]c6nnc(-c7ccccc7O)cc56)C4)CC3)no2)C(C)C)cc1 (mixture of isomers) [Compound 236, (2S,4R)-4-hydroxy-1-((R)-2-(3-(4-(3-(3-(2-hydroxyphenyl)-7H-pyrrolo[2,3-c]pyridazin-5-yl)azetidine-1-carbonyl)piperidin-1-yl)isoxazol-5-yl)-3-methylbutanoyl)-N-((S)-1-(4-(4-methylthiazol-5-yl)phenyl)ethyl)pyrrolidine-2-carboxamide] | C (“C” indicates maximum degradation < 50%) | – | < 50% | –
